Laboratory results taken from patent US5466678A, “Co-administration of S-adenosyl-L-methionine to reduce the nephrotoxicity of cisplatin therapy” (priority 1992, dated 1995).
Read-outs that look alike come from different tables or passages of the source.

Columns and labels:
L1210 leukemic cells [1] = experiment: Test Example 7: in vitro antitumor activity, L1210; type: cell-based, mouse; details: test drug alone
Method: (§1) Mouse L1210 and P388 leukemic cells were adjusted to 10^4 cells/ml in culture medium RPMI 1640, and the mixture was dispensed in 2 ml portions into culture test tubes (Falcon No. 2054) and cultured at 37° C. for 5 hours in the presence of 5% carbonic acid gas in a carbonic acid gas incubator. CDDP and/or SAMes were (was) then added into each culture test tube and incubation was continued for further one hour. The cultures were centrifuged at 1,600 rpm for 5 minutes and the culture medium was removed with suction. Two ml of RPMI 1640 was added to the residue and the mixture was cultured for 72 hours under the same conditions as described above, whereafter the number of cells in each of the resulting cultures was measured on a Coulter counter (Model ZB).

P388 leukemic cells = experiment: Test Example 7: in vitro antitumor activity, P388; type: cell-based, mouse; details: CDDP alone
Method: The cultures were centrifuged at 1,600 rpm for 5 minutes and the culture medium was removed with suction.

[2] = system: Colon 26 colon tumor cells; experiment: Test Example 9: in vitro antitumor activity, Colon 26; type: cell-based, mouse; details: CDDP alone
Method: (§2) Mouse Colon 26 colon tumor cells were adjusted to 5×10^3 cells/ml in culture medium […] culture was dispensed in 2 ml portions into culture Petri dishes. […] The culture medium was removed with suction, and after washing once with cold PBS(-) 2 ml portions of fresh medium were dispensed into the cultures, which were then cultured for further 72 hours. The cells were treated with trypsin, diluted and then counted using a Coulter counter.

[3] = system: A549 pulmonary adenocarcinoma; experiment: Test Example 10: antitumor activity against human tumors, A549; type: cell-based; details: CDDP alone
Method: (§3) After the culture medium was removed with suction, the respective residues were washed once with cold PBS (-), supplemented with 2 ml portions of fresh medium and then cultured for further 72 hours. The cells were treated with trypsin, diluted and then counted using a Coulter counter.
(§4) Culture medium MEM: 10% fetal calf serum, Kanamycin (60 μg/ml)
A549: pulmonary adenocarcinoma;

LU65 pulmonary cancer = experiment: Test Example 10: antitumor activity against human tumors, LU65; type: cell-based; details: CDDP alone
Method: as §3, §4

[4] = system: MKN28 gastric adenocarcinoma; experiment: Test Example 10: antitumor activity against human tumors, MKN28; type: cell-based; details: CDDP alone
Method: as §3, §4
MKN28: gastric adenocarcinoma;

[5] = system: MKN45 gastric adenocarcinoma; experiment: Test Example 10: antitumor activity against human tumors, MKN45; type: cell-based; details: CDDP alone
Method: as §3, §4
MKN45: gastric adenocarcinoma;

[6] = system: DLD-1 colon adenocarcinoma; experiment: Test Example 10: antitumor activity against human tumors, DLD-1; type: cell-based; details: CDDP alone
Method: as §3, §4
DLD-1: colon adenocarcinoma;

[7] = system: WiDr colon adenocarcinoma; experiment: Test Example 10: antitumor activity against human tumors, WiDr; type: cell-based; details: CDDP alone
Method: as §3, §4
WiDr: colon adenocarcinoma;

[8] = system: MCAS ovarian cyst adenocarcinoma; experiment: Test Example 10: antitumor activity against human tumors, MCAS; type: cell-based; details: CDDP alone
Method: as §3, §4
MCAS: ovarian cyst adenocarcinoma;

PA-1 ovarian teratoma = experiment: Test Example 10: antitumor activity against human tumors, PA-1; type: cell-based; details: CDDP alone
Method: as §3, §4

[9] = system: ACHN renal adenocarcinoma; experiment: Test Example 10: antitumor activity against human tumors, ACHN; type: cell-based; details: CDDP alone
Method: as §3, §4
ACHN: renal adenocarcinoma

L1210 leukemic cells [10] = experiment: Test Example 8: in vivo potentiation of antitumor activity of CDDP, L1210; parameters: species or system mouse (CDF1 strain); details: for Animals showing 30 days of survival / ILS: days 1 and 5; for Change in body weight: day 7 minus day 1
Text: Groups each containing six 8-week-old male mice of the CDF1 strain, weighing 24-28 g, were used. Mouse L1210 leukemic cells (10^5 cells) were transplanted into the abdominal cavity (on day 0).
wherein T stands for the average number of days of survival in the CDDP-administered groups of animals, and C for that in the non-CDDP-administered group (control group) of animals.
When the animals survived 30 days or more, the number of days of survival was deemed as 30 days for the purpose of calculation.
The administration was carried out intraperitoneally each time (on days 1 and 5). […] And the changes in body weight are presented as the difference between the mean body weights on days 1 and 7 (average body weight on day 7--average body weight on day 1) for each group.

L1210 leukemic cells [11] = experiment: Test Example 11: potentiation by intraperitoneally or intravenously administered SAMe against mouse tumor L1210; type: in vivo, mouse (CDF1)
Text: Groups each containing six 8- to 9-week-old male CDF1 mice weighing 24-28 g were used. Mouse L1210 leukemic cells (10^5 cells) were transplanted into the abdominal cavity (on day 0).

mouse tumors = experiment: Antitumor activity in vitro, mouse tumors (summary); type: cell-based; details: CDDP alone
Method: as §1, §2

human tumors = experiment: Antitumor activity in vitro, human tumors (summary); type: cell-based; details: CDDP alone
Method: as §3, with “Human tumor cells which are listed below were adjusted to 5×10^3 -2×10^4 cells/ml in culture medium RPMI 1640 (N.B. 1) or MEM (N.B. 2), and the respective cultures were dispensed in 2 ml portions into culture Petri dishes. […] After” for “After”

[12] = type: in vivo, rat (SD strain); details: for Concentration of SH compounds in blood plasma (as converted to glutathione concentration) / Concentration of SH compounds in renal tissue (as converted to glutathione concentration): mean ± S.D.
Method: Test method: To 6-week-old rats of the SD strain was intravenously administered SAMe in physiological saline (30 mg/kg, pH 6), and the blood level of SH group-containing compounds in the renal tissue was measured thereafter at 30, 60 and 120 minutes (N. Kaplowits et al., J. Pharmacol. Exp. Ther. , 1977, 200, 279-286) .
The values in the table for the concentration of SH compounds in the renal tissue and blood plasma presented as means ± standard deviation as calculated on the assumption that all the SH compounds were glutathione.

[13] = system: nephrotoxicity caused by CDDP; experiment: Test Example 2: nephrotoxicity (BUN) after single administration of CDDP in the dog; type: in vivo, dog (beagle); details: for BUN concentration: mean ± SD
Method: Nine beagle dogs (weighing 10.2-14.5 kg; 24-36 months of age) were divided into three groups of three animals each. […] BUN values were measured every two days after the administration and compared.

tumor cells = experiment: Antitumor activity, all tumor cells tested (summary); type: cell-based, mouse and human; details: SAMe alone, respective tumor cells
Method: as §1
Mouse Colon 26 colon tumor cells were adjusted to 5×10^3 cells/ml in culture medium […] culture was dispensed in 2 ml portions into culture Petri dishes. […] The cells were treated with trypsin, diluted and then counted using a Coulter counter.
Human tumor cells which are listed below were adjusted to 5×10^3 -2×10^4 cells/ml in culture medium RPMI 1640 (N.B. 1) or MEM (N.B. 2), and the respective cultures were dispensed in 2 ml portions into culture Petri dishes. […] The cells were treated with trypsin, diluted and then counted using a Coulter counter.

[14] = in vivo, iv
[15] = intraperitoneal administration, rat; cited from earlier work
[16] = 30 min after SAMe 30 mg/kg i.v.
[17] = 60 min after SAMe 30 mg/kg i.v.
[18] = 120 min after SAMe 30 mg/kg i.v.

N.N.[Cl][Pt][Cl] [CDDP, cis-diamine-dichloroplatinum]
IC50 (L1210 leukemic cells [1]): 16.2 µM
IC50 (P388 leukemic cells): 3.5 µM
IC50 [2]: 41.7 µM
IC50 [3]: 18.7 µM
IC50 (LU65 pulmonary cancer): 20.3 µM
IC50 [4]: 62.8 µM
IC50 [5]: 25.4 µM
IC50 [6]: 23.5 µM
IC50 [7]: 37.7 µM
IC50 [8]: 150 µM
IC50 (PA-1 ovarian teratoma): 4.1 µM
IC50 [9]: 48.4 µM
Animals showing 30 days of survival (L1210 leukemic cells [10]; CDDP 4 mg/kg alone i.p.): 0/6
ILS (L1210 leukemic cells [10]; CDDP 4 mg/kg alone i.p.): 73%
Change in body weight (L1210 leukemic cells [10]; CDDP 4 mg/kg alone i.p.): -2.4 g
Animals showing 30 days of survival (L1210 leukemic cells [10]; CDDP 6 mg/kg alone i.p.): 0/6
ILS (L1210 leukemic cells [10]; CDDP 6 mg/kg alone i.p.): 121%
Change in body weight (L1210 leukemic cells [10]; CDDP 6 mg/kg alone i.p.): -4.5 g
ILS (L1210 leukemic cells [11]; CDDP 4 mg/kg alone, intraperitoneal): 78%
ILS (L1210 leukemic cells [11]; CDDP 4 mg/kg alone, intravenous): 28%
ILS (L1210 leukemic cells [11]; CDDP 6 mg/kg alone, intraperitoneal): 84%
IC50 (mouse tumors): 3.5 to 41.7 µM
IC50 (human tumors): 4.1 to 150 µM

C[S+](CC[C@H](N)C(=O)O)C[C@H]1O[C@@H](n2cnc3c(N)ncnc32)[C@H](O)[C@@H]1O (stereo partly drawn) [SAMe, S-adenosyl-L-methionine]
Concentration of SH compounds in blood plasma (as converted to glutathione concentration) [12, 16]: 12.2 ± 2.7 μg/ml blood plasma
Concentration of SH compounds in renal tissue (as converted to glutathione concentration) [12, 16]: 1219.3 ± 68.3 μg/g organ
Concentration of SH compounds in blood plasma (as converted to glutathione concentration) [12, 17]: 12.5 ± 2.1 μg/ml blood plasma
Concentration of SH compounds in renal tissue (as converted to glutathione concentration) [12, 17]: 1256.0 ± 125.3 μg/g organ
Concentration of SH compounds in blood plasma (as converted to glutathione concentration) [12, 18]: 18.5 ± 3.0 μg/ml blood plasma
Concentration of SH compounds in renal tissue (as converted to glutathione concentration) [12, 18]: 1201.1 ± 37.8 μg/g organ
Accumulation in renal tissue ([12]; rat, in vivo, iv): accumulate the SAMe specifically in the renal tissue
BUN concentration ([13]; SAMe 30 mg/kg i.v. with CDDP 4 mg/kg, day 1): 15.0 ± 1.04 mg/dL
BUN concentration ([13]; SAMe 30 mg/kg i.v. with CDDP 4 mg/kg, day 6): 167.2 ± 102.30 mg/dL
BUN concentration ([13]; SAMe 30 mg/kg i.v. with CDDP 4 mg/kg, day 12): 41.62 ± 0.00 mg/dL
Mortality by day 7 ([13]; SAMe 30 mg/kg with CDDP 4 mg/kg): two out of the three animals
BUN concentration ([13]; SAMe 100 mg/kg i.v. with CDDP 4 mg/kg, day 1): 13.4 ± 2.80 mg/dL
BUN concentration ([13]; SAMe 100 mg/kg i.v. with CDDP 4 mg/kg, day 6): 27.6 ± 19.151 mg/dL
BUN concentration ([13]; SAMe 100 mg/kg i.v. with CDDP 4 mg/kg, day 12): 25.5 ± 13.36 mg/dL
IC50 (L1210 leukemic cells [1]; Mus musculus): > 1000 µM
IC50 (tumor cells): ≥ 1000 µM
Distribution to renal tissue [14]: concentrates specifically at the renal tissue
Metabolism at the renal tissue [14]: converted through the process of transmethylation to S-adenosylhomocysteine
LD50 [15]: 2,000-2,500 mg/kg
